Source: ChEMBL document CHEMBL4699523, “Predicting the Human Hepatic Clearance of Acidic and Zwitterionic Drugs” (J Med Chem, 2020)

How the values were obtained:
[1] = cynomolgus monkey, in vivo, iv, 1 mg/kg
in vitro [2] = details: rat, plasma
Description: Fraction unbound in rat plasma

in vitro [3] = details: human, plasma
Description: Fraction unbound in human plasma

[4] = human, in vivo, iv
Description: Hepatic clearance in human administered through iv dosing

in vitro [5] = details: human, cryopreserved hepatocytes
in vitro [6] = details: cynomolgus monkey, plasma
Description: Fraction unbound in cynomolgus monkey plasma

in vitro [7] = details: dog, MDCK, pH 7.4
Description: Apparent permeability in dog MDCKII-LE cells at pH 7.4

[8] = rat, in vivo, iv, 1 mg/kg
physchem [9] = test: physchem
clinical = details: human, blood and plasma, iv
Description: Ratio of drug level in human blood to plasma administered through iv dosing by LC-MS/MS analysis

in vivo [10] = details: cynomolgus monkey, blood and plasma, iv
Description: Ratio of drug level in cynomolgus monkey blood to plasma administered through iv dosing by LC-MS/MS analysis

physchem [11] = details: buffer, pH 7.4
physchem [12] = test: physchem; remark: listed apart in the source
in vivo [13] = details: Wistar Hannover, rat, blood and plasma, iv
Description: Ratio of drug level in Wistar Hannover rat blood to plasma administered through iv dosing by LC-MS/MS analysis

| SMILES | CLH [1] [mL/min/kg] | fraction unbound (in vitro [2]) | fraction unbound (in vitro [3]) | CLH [4] [mL/min/kg] | CLint scaled at 2 h, 1 µM (in vitro [5]) [mL/min/kg] | fraction unbound (in vitro [6]) | Papp (in vitro [7]) [×10⁻⁶ cm/s] | CLH [8] [mL/min/kg] | pKa at 0.3 h (physchem [9]) | blood plasma ratio (clinical) | blood plasma ratio (in vivo [10]) | logD (physchem [11]) | pKa at 0.3 h (physchem [12]) | blood plasma ratio (in vivo [13]) |
| --- | --- | --- | --- | --- | --- | --- | --- | --- | --- | --- | --- | --- | --- | --- |
| CCCCC(=O)N(Cc1ccc(-c2ccccc2-c2nnn[nH]2)cc1)[C@H](C(=O)O)C(C)C | 8.4 | 0.00302 | 0.00415 | 0.35 | 1.6 | 0.0145 | 0.32 | 5.1 | – | – | – | – | – | – |
| O=C(O)c1cccc(Cc2cc(Cl)ccc2OCc2ccc(Cl)cc2F)n1 | 19.5 | – | 0.0024 | 2 | 180 | 0.00288 | 12 | – | 5.3 | 0.654 | 0.561 | – | – | – |
| CCCCc1nc(C)c(CC(=S)N(C)C)c(=O)n1Cc1ccc(-c2ccccc2-c2nnn[nH]2)cc1 | 23 | – | 0.0288 | 9.6 | 17 | 0.0177 | 1.2 | – | 4.3 | 0.726 | 0.588 | 0.9 | 2.7 | – |
| CN(C)C(=O)CCS[C@H](SCCC(=O)O)c1cccc(/C=C/c2ccc3ccc(Cl)cc3n2)c1 | 10.1 | – | 0.00142 | 0.91 | 61 | 0.00116 | 8.5 | – | 4.4 | 0.655 | 0.581 | 1.5 | 3.8 | – |
| COCc1c(C(C)C)nc(C(C)C)c(/C=C/[C@@H](O)C[C@@H](O)CC(=O)O)c1-c1ccc(F)cc1 [CERIVASTATIN] | 19.7 | 0.0179 | 0.0176 | 2.7 | 43 | 0.0153 | – | 8.7 | 4.7 | – | – | – | 5.6 | – |
| CC(C)(C)OC(=O)N[C@H]1CCCCC/C=C\[C@@H]2C[C@@]2(C(=O)NS(=O)(=O)C2CC2)NC(=O)[C@@H]2C[C@@H](OC(=O)N3Cc4cccc(F)c4C3)CN2C1=O [DANOPREVIR] | 26.3 | – | 0.072 | 10.8 | – | 0.085 | 2.5 | – | – | 0.73 | 0.73 | – | – | – |
| CCCCCN(CCCOC)C(=O)[C@@H](CCC(=O)O)NC(=O)c1ccc(Cl)c(Cl)c1 [DEXLOXIGLUMIDE] | 1.4 | – | 0.00969 | 3.3 | 26 | 0.00771 | 4.6 | – | 4.2 | 0.563 | 0.596 | 1.5 | – | – |
| O=C(O)Cc1ccccc1Nc1c(Cl)cccc1Cl [DICLOFENAC] | 10.8 | 0.00598 | 0.00376 | 4.1 | 176 | 0.0047 | – | 17.5 | – | – | – | – | – | – |
| CC(C)(C)NC(=O)[C@H]1CC[C@H]2[C@@H]3CC=C4C=C(C(=O)O)CC[C@]4(C)[C@H]3CC[C@]12C [EPRISTERIDE] | 1.5 | – | 0.0138 | 0.33 | 23 | 0.00917 | 20 | – | 4.6 | 0.55 | 0.55 | 3.4 | – | – |
| CC(C)n1c(/C=C/C(O)CC(O)CC(=O)O)c(-c2ccc(F)cc2)c2ccccc21 (centres undefined) [FLUVASTATIN] | – | 0.009 | 0.00922 | – | – | – | 11 | – | 4.4 | – | – | 1.4 | – | – |
| COc1ccc2c(c1)C(=O)N(CCc1ccc(S(=O)(=O)NC(=O)NC3CCCCC3)cc1)C(=O)C2(C)C [GLIQUIDONE] | 3.5 | – | 0.0035 | 0.96 | – | 0.0015 | 5.7 | – | – | 0.62 | 0.62 | – | – | – |
| COc1ccc(Cl)cc1C(=O)NCCc1ccc(S(=O)(=O)NC(=O)NC2CCCCC2)cc1 [GLYBURIDE] | 5.8 | 0.0013 | 0.00217 | 1.2 | 69 | 0.00179 | 14 | 1.2 | – | – | – | – | – | – |
| CC(C)Cc1ccc(C(C)C(=O)O)cc1 (centres undefined) [IBUPROFEN] | – | – | – | – | – | – | 33 | – | – | – | – | 1.1 | – | – |
| CCCCC1=NC2(CCCC2)C(=O)N1Cc1ccc(-c2ccccc2-c2nnn[nH]2)cc1 [IRBESARTAN] | 12.1 | – | 0.0155 | 2.1 | – | 0.0126 | 8.6 | – | 3.5 | 0.603 | 0.55 | 1.3 | 4.6 | – |
| O=C(c1ccccc1)c1ccc2n1CCC2C(=O)O (centres undefined) [KETOROLAC] | 1.2 | 0.0216 | 0.0264 | 0.19 | 3.1 | 0.0148 | 15 | 1.3 | – | 0.792 | 0.687 | -0.6 | – | 0.55 |
| CC(C)(O)c1ccccc1CC[C@@H](SCC1(CC(=O)O)CC1)c1cccc(/C=C/c2ccc3ccc(Cl)cc3n2)c1 [MONTELUKAST] | 1.3 | – | 0.004 | 0.57 | – | 0.004 | 6 | – | – | – | – | – | 2.3 | – |
| O=C(O)c1ccc(NC(=O)[C@H](CC2CCCC2)n2cnc(C(F)(F)F)c2)nc1 [PF-04991532] | – | – | – | – | – | – | – | – | – | – | – | 0.7 | – | – |
| Nc1[nH]ncc1-c1cc(Cl)ccc1Oc1cc(F)c(S(=O)(=O)Nc2cscn2)cc1Cl [PF-05089771] | 1.8 | 0.0133 | – | 0.59 | 40 | 0.00164 | – | 6 | 6 | – | – | 2.3 | 2.9 | – |
| CCN1CC(n2nccc2-c2cc(Cl)ccc2Oc2ccc(S(=O)(=O)Nc3cscn3)cc2C#N)C1 [PF-05150122] | – | – | – | 3.2 | – | – | – | 271 | – | – | – | 1.1 | – | – |
| O=S(=O)(Nc1nncs1)c1cc(Cl)c(Oc2ccc(C(F)(F)F)cc2-c2ccnnc2)cc1F [PF-05186462] | – | – | – | 1.3 | – | – | 0.8 | – | 4.1 | – | – | 0.8 | – | – |
| CCOc1cc(CC(=O)N[C@@H](CC(C)C)c2ccccc2N2CCCCC2)ccc1C(=O)O [REPAGLINIDE] | 10.7 | – | 0.0124 | 7.4 | 98 | 0.0124 | 19 | – | 4.4 | 0.851 | 0.679 | 2.3 | 6 | – |
| CCO[C@@H](Cc1ccc(OCCc2ccc(OS(C)(=O)=O)cc2)cc1)C(=O)O [TESAGLITAZAR] | 0.135 | – | 0.00273 | 0.03 | 4.7 | 0.00151 | – | – | 3.4 | 0.699 | 0.687 | -0.1 | – | – |
